Source: patent US10744175B2, “Herbal composition for the treatment of Herpes” (priority 2016, dated 2020)

System: Herpes simplex virus
Assay: Administration to human subjects with Herpes symptoms (case reports)
Format: in vivo
Settings: case 3: taken for years by man and woman positive for HSV 1 and 2
Experimental: • 1. Frequent Genital herpes outbreaks—A person from Karnataka, India, suffers from severe blistering, pain and burning around the pubic region and genitals due to one or more strains of the Herpes virus. The composition of the invention as disclosed in Example 1 is administered. […] Tiny pimple-like outbreaks around lips—A person—starts experiencing tiny pimples on their lips which later appear like blisters. Blood tests show high titer from HSV 1 antibodies. […] Each tests positive for HSV 1 and 2. […] A person reports the presence of abnormal cells along with the presence of HPV. These cells then develop into “pre-cancerous” cells. This subject daily ingests the composition of Example 1 for 4 months. […] After administration of the composition of Example 1 for over 6 months, the results for HPV come back negative. • 6. A person reports warts on their hands for about 6 years which they remove with laser therapy. This burns the skin and leaves scars. […] A person reports an HPV infection for 5 years. Within the first 6 months of daily ingestion of the composition of Example 1, all tests for HPV are negative and no recurrence is shown. • 8. A person ingests the composition of Example 1 along with an alkaline diet. This subject suffers from larger warts (around 10 in number). […]

Nc1nc2c(ncn2COCCO)c(=O)[nH]1 [acyclovir] was tested, and the “outcome of previous antiviral treatment” value was “little success”.
